Drawing on ChEMBL document CHEMBL2074300, “Induction profile of rat organic anion transporting polypeptide 2 (oatp2) by prototypical drug-metabolizing enzyme inducers that activate gene expression through ligand-activated transcription factor pathways” (J Pharmacol Exp Ther, 2002), this text covers Activity for eleven compounds.

Data set [1] has as its target T1, Solute carrier organic anion transporter family member 1A4 (Rattus norvegicus, UniProt O35913).
T1 sequence (O35913 whole entry): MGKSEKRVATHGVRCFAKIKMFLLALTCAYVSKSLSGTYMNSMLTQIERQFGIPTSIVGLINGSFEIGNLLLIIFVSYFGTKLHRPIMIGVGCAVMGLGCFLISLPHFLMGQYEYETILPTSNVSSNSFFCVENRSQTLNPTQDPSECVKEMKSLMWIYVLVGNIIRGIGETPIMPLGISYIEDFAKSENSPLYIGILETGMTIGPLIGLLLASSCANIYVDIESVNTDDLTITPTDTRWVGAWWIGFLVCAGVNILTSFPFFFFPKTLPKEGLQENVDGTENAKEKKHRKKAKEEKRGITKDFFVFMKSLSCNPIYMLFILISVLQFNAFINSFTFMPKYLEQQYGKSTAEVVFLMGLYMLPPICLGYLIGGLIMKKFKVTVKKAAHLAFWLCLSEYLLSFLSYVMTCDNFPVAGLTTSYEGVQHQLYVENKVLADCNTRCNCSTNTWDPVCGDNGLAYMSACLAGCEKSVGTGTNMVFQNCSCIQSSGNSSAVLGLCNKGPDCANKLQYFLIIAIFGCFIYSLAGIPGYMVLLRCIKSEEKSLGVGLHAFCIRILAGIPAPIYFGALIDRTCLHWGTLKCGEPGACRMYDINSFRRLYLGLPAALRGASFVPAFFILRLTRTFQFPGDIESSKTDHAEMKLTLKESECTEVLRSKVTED
As to the kind of experiment: TP_TRANSPORTER: Western in vivo SD rat, liver. It is filed as functional, organism-based, Sprague-Dawley.

Data set [2] has as its target T1, Solute carrier organic anion transporter family member 1A4. In words: TP_TRANSPORTER: Northern blot in vivo SD rat, liver. It counts as functional, organism-based, Sprague-Dawley.

The structures appear in SMILES notation.

Consider `Clc1cc2c(cc1Cl)Oc1cc(Cl)c(Cl)cc1O2` [2,3,7,8-TETRACHLORODIBENZO-P-DIOXIN], for which the Activity result in data set [1] is “inducer [Decrease]”. Same read-out and setting: for `O=c1cc(-c2ccccc2)oc2ccc3ccccc3c12` [BETA-NAPHTHOFLAVONE] the value was “inducer [Decrease]”.

With `CCCC[C@@H](CC)COC(=O)c1ccccc1C(=O)OC[C@@H](CC)CCCC` [BIS(2-ETHYLHEXYL)PHTHALATE], the Activity result in data set [1] is “inducer [+]”.

With `C[C@@H]1C[C@H]2[C@@H]3CCC4=CC(=O)C=C[C@]4(C)[C@@]3(F)[C@@H](O)C[C@]2(C)[C@@]1(O)C(=O)CO` [DEXAMETHASONE], the Activity result in data set [1] is “inducer [+]”. With `C=CCSCC=C` [DIALLYL SULFIDE], the Activity result in data set [1] and in data set [2] was “inducer [+]” in each case.

With `OCc1c[nH]c2ccccc12` [INDOLE-3-CARBINOL], the values for the Activity result in data set [1] and in data set [2] were “inducer [Decrease]” and “inducer [+]”, respectively. Take `CCC1(c2ccccc2)C(=O)NC(=O)NC1=O` [PHENOBARBITAL]: the Activity entry in data set [1] was “inducer [+]”. With `Clc1ccc(-c2cc(Cl)c(Cl)cc2Cl)c(Cl)c1` [POLYCHLORINATED BIPHENYL 99], the Activity result in data set [1] was “inducer [+]”. On the same count and under the same terms, for `Clc1ccc(-c2cc(Cl)c(Cl)c(Cl)c2)cc1Cl` [POLYCHLORINATED BIPHENYL 126] the value was “inducer [Decrease]”.

With `CC(=O)[C@H]1[C@H](C#N)C[C@H]2[C@@H]3CC=C4C[C@@H](O)CC[C@]4(C)[C@H]3CC[C@@]21C` [PREGNENOLONE CARBONITRILE], the Activity entry in data set [1] and in data set [2] was “inducer [+]” throughout. As for `CC(=O)S[C@@H]1CC2=CC(=O)CC[C@]2(C)[C@H]2CC[C@@]3(C)[C@@H](CC[C@@]34CCC(=O)O4)[C@H]12` [SPIRONOLACTONE], the Activity result in data set [1] is “inducer [+]”.
